# Laboratory results as given in ChEMBL document CHEMBL1201862, “PubChem BioAssay data set” (2004).
#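 The compound was tested at five concentrations on cells cultured in 96-well plates, with a 48-hour exposure period. GI50 = concentration required for 50% inhibition of growth.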 Activity calls are given as the source filed them. Rule as the data show it: active = GI50 up to about 1.1 µM and inactive = higher.
# What was measured:
# Experiment in all cases: inhibition of tumour cell growth, NCI panel, 48 h
# 786-0 = test system: 786-0
# CAKI-1 = test system: CAKI-1
# IGROV-1 = test system: IGROV-1
# MCF7 = test system: MCF7
# MDA-MB-231 = test system: MDA-MB-231
# NCI-H226 = test system: NCI-H226
# OVCAR-3 = test system: OVCAR-3
# OVCAR-8 = test system: OVCAR-8
# RPMI-8226 = test system: RPMI-8226
# SK-MEL-28 = test system: SK-MEL-28
# SK-MEL-2 = test system: SK-MEL-2
# SK-OV-3 = test system: SK-OV-3
# SN12C = test system: SN12C
# SNB-19 = test system: SNB-19
# T47D = test system: T47D
# UACC-257 = test system: UACC-257
# SR = test system: SR
# UO-31 = test system: UO-31
# HCC 2998 = test system: HCC 2998
Compound,GI50 (786-0),GI50 (CAKI-1),GI50 (IGROV-1),GI50 (MCF7),GI50 (MDA-MB-231),GI50 (NCI-H226),GI50 (OVCAR-3),GI50 (OVCAR-8),GI50 (RPMI-8226),GI50 (SK-MEL-28),GI50 (SK-MEL-2),GI50 (SK-OV-3),GI50 (SN12C),GI50 (SNB-19),GI50 (T47D),GI50 (UACC-257),GI50 (SR),GI50 (UO-31),GI50 (HCC 2998)
CCOP(=O)(/C=C\n1ccc(=O)[nH]c1=O)OCC,> 100 µM (inactive),> 100 µM (inactive),> 100 µM (inactive),> 100 µM (inactive),> 100 µM (inactive),> 100 µM (inactive),> 100 µM (inactive),> 100 µM (inactive),> 100 µM (inactive),> 100 µM (inactive),> 100 µM (inactive),> 100 µM (inactive),> 100 µM (inactive),> 100 µM (inactive),> 100 µM (inactive),> 100 µM (inactive),,,
O=c1c2cccc3cccc(c4n1CCCN=4)c32,> 100 µM (inactive),> 100 µM (inactive),> 100 µM (inactive),,,> 100 µM (inactive),> 100 µM (inactive),> 100 µM (inactive),> 100 µM (inactive),> 100 µM (inactive),> 100 µM (inactive),> 100 µM (inactive),> 100 µM (inactive),,,> 100 µM (inactive),31.3 µM (inactive),80.4 µM (inactive),
COc1cc(C(=O)Nc2cccc3ccccc23)c(Br)c(OC)c1OC,1.38 µM (inactive),> 100 µM (inactive),81.8 µM (inactive),,,36.3 µM (inactive),> 100 µM (inactive),0.0416 µM (active),42.8 µM (inactive),89.9 µM (inactive),> 100 µM (inactive),> 100 µM (inactive),> 100 µM (inactive),> 100 µM (inactive),,> 100 µM (inactive),> 100 µM (inactive),31.4 µM (inactive),> 100 µM (inactive)
CN(C)CC1CCC(CN(C)C)C(=O)C1=O (stereo unspecified),5.14 µM (inactive),1.99 µM (inactive),17.6 µM (inactive),2.46 µM (inactive),6.22 µM (inactive),4.41 µM (inactive),2.31 µM (inactive),3.01 µM (inactive),2.52 µM (inactive),8.87 µM (inactive),19.3 µM (inactive),24 µM (inactive),18.4 µM (inactive),17.7 µM (inactive),2.31 µM (inactive),2.4 µM (inactive),2.09 µM (inactive),3.48 µM (inactive),20.9 µM (inactive)
CCOC(=O)C(/C(=N/NC(=O)OC)C(=O)Nc1ccc(C(C)=O)cc1)c1cnc2ccccc2n1 (stereo unspecified),> 100 µM (inactive),> 100 µM (inactive),> 100 µM (inactive),,,> 100 µM (inactive),> 100 µM (inactive),> 100 µM (inactive),,> 100 µM (inactive),,> 100 µM (inactive),> 100 µM (inactive),> 100 µM (inactive),,> 100 µM (inactive),> 100 µM (inactive),> 100 µM (inactive),> 100 µM (inactive)
COC(=O)/C(=N\NC(N)=S)C(C(=O)OC)C(=O)C(=O)Nc1ccc(C)cc1 (stereo unspecified),> 100 µM (inactive),> 100 µM (inactive),> 100 µM (inactive),,,> 100 µM (inactive),> 100 µM (inactive),> 100 µM (inactive),> 100 µM (inactive),> 100 µM (inactive),> 100 µM (inactive),> 100 µM (inactive),> 100 µM (inactive),> 100 µM (inactive),,> 100 µM (inactive),> 100 µM (inactive),> 100 µM (inactive),> 100 µM (inactive)
Cc1ccc(C2=C(c3ccccc3)C(=O)C(c3ccccc3)=C2c2ccc(C)cc2)cc1,34.8 µM (inactive),,> 100 µM (inactive),,,65.5 µM (inactive),,73.6 µM (inactive),29.1 µM (inactive),21.9 µM (inactive),6.79 µM (inactive),> 100 µM (inactive),66.5 µM (inactive),54.3 µM (inactive),,39.4 µM (inactive),58.5 µM (inactive),> 100 µM (inactive),> 100 µM (inactive)
N#C/C(=C\c1cc(Cl)cc(Cl)c1)c1ccccn1,21.5 µM (inactive),13.6 µM (inactive),12.4 µM (inactive),5.61 µM (inactive),,5.47 µM (inactive),26.1 µM (inactive),18 µM (inactive),> 100 µM (inactive),8.63 µM (inactive),92 µM (inactive),4.52 µM (inactive),> 100 µM (inactive),> 100 µM (inactive),,82.8 µM (inactive),6.27 µM (inactive),43.8 µM (inactive),31 µM (inactive)
